Test [1] has as its target T1, SARS-CoV-2 PLpro (nsp3 1564–1878) (Severe acute respiratory syndrome coronavirus 2, UniProt P0DTD1). As to the kind of experiment: biochemical. Also noted: FRET-quenched peptide (Pro3) cleavage by PLpro, 10 min pre-incubation, slope over 20 min, normalised to no-compound control. Particulars: high concentration screen, read-out: % of control remaining.
Protocol: The plates were organized with columns 3–22 containing the compounds; the remaining columns were used for reaction controls including substrate only and substrate with enzyme but no compound (Figure 3Aii). The PLpro enzyme was pre-incubated with the compounds for 10 min, and then the reaction was initiated by the addition of substrate. […] We incubated the inhibitors with PLpro before the enzymatic reaction so that the slow-binding inhibitors will not be missed out [21]. […] Fluorescence was read on a Spark multimode microplate reader (Tecan) with an excitation wavelength at 330 nm and emission wavelength at 420 nm. […] An amount of 5 µl of the enzyme was pre-incubated with compounds for 10 min before the addition of 15 µl substrate. Fluorescence was monitored at 2 min for 20 min with 3 min intervals giving a total of seven readings.
Test [2] concerns the target T1, SARS-CoV-2 PLpro (nsp3 1564–1878). As to the kind of experiment: biochemical. Further details: FRET-quenched peptide (Pro3) cleavage by PLpro, 10 min pre-incubation, slope over 20 min, normalised to no-compound control. Particulars: low concentration screen, read-out: % of control remaining.

Structures can show the parent of a compound that is named as a salt. Where two headings read alike, the source gives them in different places.

For the molecule `CN1Cc2sccc2C(c2ccc(O)c(O)c2)C1` (stereo not shown) [SKF 89145 hydrobromide], in test [1] (Well no.=1218), the remaining activity at 3.75 µM is 98.3%. Also, the remaining activity at 1.25 µM in test [2] (Well no.=1218) was determined as 92.6%.

As to `Oc1ccc(C2CNCc3sccc32)cc1O` (stereo not shown) [SKF 89626], the remaining activity at 3.75 µM in test [1] (Well no.=1456) is 99.7%. The remaining activity at 1.25 µM in test [2] (Well no.=1456) was 98.5%.

In the case of `O=C(O)C1CCCN(CCC=C(c2ccccc2)c2ccccc2)C1` (stereo not shown) [SKF 89976A hydrochloride], in test [1] (Well no.=1323), the remaining activity at 3.75 µM worked out at 102%. Moreover, in test [2] (Well no.=1323), the remaining activity at 1.25 µM was found to be 99.7%.

Take `CN(C)CCCCSC(=N)N` [SKF 91488 dihydrochloride]: the remaining activity at 3.75 µM in test [1] (Well no.=1421) is 98.7%. In addition, the remaining activity at 1.25 µM in test [2] (Well no.=1421) is 100%.

In the case of `COc1ccc(CCCOC(Cn2ccnc2)c2ccc(OC)cc2)cc1` (stereo not shown) [SKF 96365], the remaining activity at 3.75 µM in test [1] (Well no.=1412) worked out at 100%. Also, the remaining activity at 1.25 µM in test [2] (Well no.=1412) was 98.9%.

As to `CP(=O)(O)CCCN` [SKF 97541 hydrochloride], the remaining activity at 3.75 µM in test [1] (Well no.=66) was determined as 98.7%. Further, the remaining activity at 1.25 µM in test [2] (Well no.=66) was 97.4%.

Turning to `CCCC(C(=O)OCCN(CC)CC)(c1ccccc1)c1ccccc1` [SKF-525A hydrochloride], in test [1] (Well no.=902), the remaining activity at 3.75 µM came to 101%. Also, the remaining activity at 1.25 µM in test [2] (Well no.=902) was 105%.

With `C=CCN1CCc2c(cc(O)c(O)c2Cl)C(c2ccccc2)C1` (stereo not shown) [SKF-82958 (hydrobromide)], the remaining activity at 3.75 µM in test [1] (Well no.=7905) was found to be 101%. For the same molecule, the remaining activity at 1.25 µM in test [2] (Well no.=7905) was determined as 105%.

For `Fc1ccc(-c2nc3n(c2-c2ccncc2)CCS3)cc1` [SKF-86002], the remaining activity at 3.75 µM in test [1] (Well no.=2652) was found to be 97.9%. Besides, the remaining activity at 1.25 µM in test [2] (Well no.=2652) was determined as 96.2%.

`COc1cc2ncnc(Sc3nnc(C)s3)c2cc1OC` [SKLB1002]: the remaining activity at 3.75 µM in test [1] (Well no.=5943) came out at 102%. The remaining activity at 1.25 µM in test [2] (Well no.=5943) was 102%.

Consider `CN[C@@H](C)C(=O)N[C@H]1CCCC[C@H]2CC[C@@H](C(=O)N[C@@H](c3ccccc3)c3cn(CCCCc4ccc(CCCCn5cc([C@@H](NC(=O)[C@@H]6CC[C@@H]7CCCC[C@H](NC(=O)[C@H](C)NC)C(=O)N76)c6ccccc6)nn5)cc4)nn3)N2C1=O` [SM-164 Hydrochloride], for which the remaining activity at 3.75 µM in test [1] (Well no.=7030) came out at 102%; in test [1] (Well no.=8556), 99.5%. Also, the remaining activity at 1.25 µM in test [2] (Well no.=7030) was found to be 105%; in test [2] (Well no.=8556) it was 104%.

With `O=C(Nc1ncc([N+](=O)[O-])s1)c1ccc([N+](=O)[O-])c(Cl)c1` [SM-7368], in test [1] (Well no.=5947), the remaining activity at 3.75 µM turned out to be 103%. Further, the remaining activity at 1.25 µM in test [2] (Well no.=5947) was 104%.

`COc1cc2cc(c1Cl)N(C)C(=O)C[C@H](OC(=O)[C@H](C)N(C)C(=O)CCSC1CC(=O)N(CC3CCC(C(=O)ON4C(=O)CCC4=O)CC3)C1=O)[C@]1(C)O[C@H]1[C@H](C)[C@@H]1C[C@@](O)(NC(=O)O1)[C@H](OC)/C=C/C=C(\C)C2` (stereo partly shown) [SMCC-DM1]: the remaining activity at 3.75 µM in test [1] (Well no.=8216) stood at 96.4%. For the same molecule, the remaining activity at 1.25 µM in test [2] (Well no.=8216) stood at 100%.

In the case of `O=C1NC(=O)/C(=C/c2cccc(C(F)(F)F)c2)S1` [SMI-4a], the remaining activity at 3.75 µM in test [1] (Well no.=4788) is 101%. Also, in test [2] (Well no.=4788), the remaining activity at 1.25 µM was determined as 104%.

As to `CCCCc1ccc(NC(C)=O)c(C)c1` [SMIP004], the remaining activity at 3.75 µM in test [1] (Well no.=6972) amounted to 98.7%. For the same molecule, the remaining activity at 1.25 µM in test [2] (Well no.=6972) was determined as 101%.

In the case of `C=CCN1C[C@H](C)N([C@H](c2ccc(C(=O)N(CC)CC)cc2)c2cccc(OC)c2)C[C@H]1C` [SNC80], the remaining activity at 3.75 µM in test [1] (Well no.=1216) is 102%. The remaining activity at 1.25 µM in test [2] (Well no.=1216) amounted to 99.3%.

For `CC(C)(C)c1cnc(CSc2cnc(NC(=O)C3CCNCC3)s2)o1` [SNS-032], the remaining activity at 3.75 µM in test [1] (Well no.=2845) was 104%. Besides, in test [2] (Well no.=2845), the remaining activity at 1.25 µM came out at 105%.

In the case of `O=C(Nc1cccc(Cl)c1)Nc1ncc(CCNc2ncnc3ccsc23)s1` [SNS-314], the remaining activity at 3.75 µM in test [1] (Well no.=2893) stood at 101%. Also, the remaining activity at 1.25 µM in test [2] (Well no.=2893) was determined as 101%.

Take `CC1(C)CC(=O)c2c(C(F)(F)F)nn(-c3ccc(C(N)=O)c(N[C@H]4CC[C@H](O)CC4)c3)c2C1` [SNX-2112]: the remaining activity at 3.75 µM in test [1] (Well no.=4635) amounted to 95.7%. The remaining activity at 1.25 µM in test [2] (Well no.=4635) is 99.3%.

In the case of `Oc1c2ccccc2c2c3c(cccc13)N=N2` [SP 600125 - Anthra[1-9-cd]pyrazol-6(2H)-one], the remaining activity at 3.75 µM in test [1] (Well no.=2432) worked out at 105%. The remaining activity at 1.25 µM in test [2] (Well no.=2432) was determined as 96.1%.

In the case of `COc1cc2cc(c1Cl)N(C)C(=O)C[C@H](OC(=O)[C@H](C)N(C)C(=O)CCC(C)(C)SSCCCC(=O)ON1C(=O)CCC1=O)[C@]1(C)O[C@H]1[C@H](C)[C@@H]1C[C@@](O)(NC(=O)O1)[C@H](OC)/C=C\C=C(\C)C2` [SPDB-DM4], the remaining activity at 3.75 µM in test [1] (Well no.=7700) is 106%. In addition, in test [2] (Well no.=7700), the remaining activity at 1.25 µM turned out to be 106%.

Turning to `Nc1ncnc2c1ncn2C1CCCO1` (stereo not shown) [SQ22536], the remaining activity at 3.75 µM turned out to be 104% in test [1] (Well no.=6236) and 93.7% in test [1] (Well no.=7958). The results for the remaining activity at 1.25 µM in test [2] (Well no.=6236) and in test [2] (Well no.=7958) were 103% and 92.2%, respectively.

In the case of `Nc1ncnc2c1ncn2C1CCCO1` (stereo not shown) [SQ 22536], the remaining activity at 3.75 µM in test [1] (Well no.=1517) stood at 99.9%. Also, the remaining activity at 1.25 µM in test [2] (Well no.=1517) came to 98.3%.

In the case of `O=C(O)CCC/C=C\C[C@@H]1[C@H](CNNC(=O)Nc2ccccc2)[C@H]2CC[C@@H]1O2` [SQ-29548], in test [1] (Well no.=4526), the remaining activity at 3.75 µM turned out to be 94.8%. For the same molecule, in test [2] (Well no.=4526), the remaining activity at 1.25 µM came to 92.8%.

Regarding `O=C(Nc1ccc(C(O)(C(F)(F)F)C(F)(F)F)cc1)c1ccccc1Cl` [SR0987], the remaining activity at 3.75 µM in test [1] (Well no.=8133) is 99.6%. Besides, in test [2] (Well no.=8133), the remaining activity at 1.25 µM worked out at 95.1%.

Regarding `CC(=O)Nc1nc(C)c(S(=O)(=O)Nc2ccc(C(O)(C(F)(F)F)C(F)(F)F)cc2)s1` [SR1001], the remaining activity at 3.75 µM in test [1] (Well no.=5461) turned out to be 111%; in test [1] (Well no.=8467), 106%. Further, the remaining activity at 1.25 µM in test [2] (Well no.=8467) was 106%.

`O=C(Nc1ccc(C(O)(C(F)(F)F)C(F)(F)F)cc1)c1ccc(C(F)(F)F)cc1` [SR1078]: the remaining activity at 3.75 µM in test [1] (Well no.=8503) was determined as 105%. The remaining activity at 1.25 µM in test [2] (Well no.=8503) was determined as 107%.

Consider `O=S(=O)(Nc1ccc(C(O)(C(F)(F)F)C(F)(F)F)cc1)c1cccs1` [SR3335], for which the remaining activity at 3.75 µM in test [1] (Well no.=8457) was found to be 107%. Besides, the remaining activity at 1.25 µM in test [2] (Well no.=8457) was found to be 110%.

On to `CN(C)CCOc1cc(-c2cn[nH]c2)ccc1NC(=O)C1COc2ccccc2O1` (stereo not shown) [SR3677], for which the remaining activity at 3.75 µM in test [1] (Well no.=2989) amounted to 98.3%. Besides, in test [2] (Well no.=2989), the remaining activity at 1.25 µM was 97.2%.

Regarding `CC1(C)CCC(C)(C)c2cc(C3(c4ccc(C(=O)O)cc4)OCCO3)ccc21` [SR11237], the remaining activity at 3.75 µM in test [1] (Well no.=5768) was 90.6%. Also, the remaining activity at 1.25 µM in test [2] (Well no.=5768) was found to be 96%.

As for `O=C(O)c1ccccc1Nc1cccc(OCc2ccc3ccccc3n2)c1` [SR 2640], the remaining activity at 3.75 µM in test [1] (Well no.=1316) came to 101%. The remaining activity at 1.25 µM in test [2] (Well no.=1316) was 101%.

Source of the values: publication PMC8286840, “Identifying SARS-CoV-2 antiviral compounds by screening for small molecule inhibitors of Nsp3 papain-like protease” (Biochemical Journal, 2021).
